Read-outs that look alike come from different tables or passages of the source.
Target: OXE receptor (Homo sapiens, UniProt Q8TDS5)
Assay: 5-oxo-ETE-induced calcium mobilization in human granulocytes
Format: cell-based
Set-up: Human granulocytes 95% neutrophils) are prepared from whole blood; endogenous in cells; host or cells: human blood granulocytes (>=95% neutrophils)
Experimental: Primary Screening for Antagonist Activity: Calcium Mobilization in Human Granulocytes
Human granulocytes 95% neutrophils) are prepared from whole blood using Dextran 500 to remove red blood cells, followed by centrifugation over Ficoll-Paque to remove mononuclear cells and hypotonic lysis of any remaining red blood cells. After centrifugation the granulocytes are suspended in Ca^++/Mg^++-free phosphate-buffered saline (PBS). Granulocytes (10^7 cells/nil) are incubated with the acetoxymethyl ester of indo-1 ([…]) for 30 min, followed by washing twice with PBS^− and resuspension in the same medium to obtain a final cell concentration of 3.22×10^6 cells/ml. Five minutes prior to commencing data acquisition, Ca^++ and Mg^++ are added to give final concentrations of 1.8 and 1 mM, respectively. Calcium measurements are performed at 37° C. using a spectrofluorometer equipped with a temperature-controlled cuvette holder and a magnetic stirrer. The excitation and emission wavelengths are 331 nm and 410 nm, respectively. Following stabilization of the baseline, fluorescence is measured for 1 min, prior to the addition of either vehicle or various concentrations of a potential 5-oxo-ETE antagonist. Two min later, 5-oxo-ETE (10 nM) is added, followed 1 min later by digitonin (final concentration 0.1%). Data acquisition is terminated after a further 0.5 min. In some cases LTB4 (10 nM) is added 2 min after 5-oxo-ETE, followed 0.5 min later by addition of digitonin. Fmax is determined from fluorescence measurements after the addition of digitonin, whereas Fmin is determined after determination of autofluorescence as described in the literature (Gelfand et al, J. Biol. Chem. 261:11520 (1986)). A dissociation constant of 250 nM for the indo-1/Ca^++ complex is used to calculate [Ca^++]i. […] Measurement of Actin Polymerization in Eosinophils

[1] = 5-oxo-ETE 10 nM, human granulocytes, Table 2, read-out: IC50 (μM) Ca^++
[2] = Table 3, position of hexyl/hexenyl on the scaffold, readout not given, values match Ca^++, read-out: IC50
[3] = Table 5, alkyl chain variation, readout not given, values match Ca^++, read-out: IC50
[4] = Table 6, carboxyl side chain variation, readout not given, values match Ca^++, read-out: IC50
[5] = Table 4, R1/R2/R3 variation, readout not given, read-out: IC50
[6] = Table 7, alkyl variation, readout not given, values match Ca^++, read-out: IC50

OXE receptor, sequence (Q8TDS5 whole entry): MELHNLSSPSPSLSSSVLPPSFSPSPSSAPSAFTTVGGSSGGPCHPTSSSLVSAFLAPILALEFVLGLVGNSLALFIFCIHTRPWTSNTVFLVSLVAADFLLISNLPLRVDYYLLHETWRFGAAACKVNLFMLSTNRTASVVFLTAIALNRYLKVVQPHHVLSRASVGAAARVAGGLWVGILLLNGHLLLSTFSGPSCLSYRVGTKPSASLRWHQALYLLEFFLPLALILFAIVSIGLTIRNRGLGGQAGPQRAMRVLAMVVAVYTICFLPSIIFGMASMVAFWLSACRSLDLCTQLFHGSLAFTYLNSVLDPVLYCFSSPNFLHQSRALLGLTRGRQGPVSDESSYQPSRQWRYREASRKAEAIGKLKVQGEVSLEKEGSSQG

## CC(C)CCCCc1c(C(=O)CC(C)CC(=O)O)c2ccc(Cl)cc2n1C (racemic) [Compound 109, 5-[6-Chloro-1-methyl-2-(5-methyl-hexyl)-1H-indol-3-yl]-3-methyl-5-oxo-pentanoic acid]
[1]
  IC50: 0.175 µM

## CCCCCCCc1c(C(=O)CC(C)CC(=O)O)c2cc(Cl)ccc2n1C (racemic) [Compound 113, 5-(5-Chloro-2-heptyl-1-methyl-1H-indol-3-yl)-3-methyl-5-oxo-pentanoic acid]
[1]
  IC50: 0.035 µM

## CC(C)CCCCc1cc2cc(Cl)ccc2n1C(=O)CC(C)CC(=O)O (racemic) [Compound 115, 5-[5-Chloro-2-(5-methyl-hexyl)-indol-1-yl]-3-methyl-5-oxo-pentanoic acid]
[1]
  IC50: 2 µM

## CCCCCCc1c(C(=O)CC(C)CC(=O)O)c2cc(Cl)ccc2n1C (stereo in doubt) [Compound 107, 5-(5-Chloro-2-hexyl-1-methyl-1H-indol-3-yl)-3-(R)-methyl-5-oxo-pentanoic acid]
[1]
  IC50: 0.009 µM

## CCCCCCc1cc2ccccc2n1C(=O)CCCC(=O)O [Compound 1, 5-(2-Hexyl-indol-1-yl)-5-oxo-pentanoic acid]
[1]
  IC50: 1 µM
[2]
  IC50: 1 µM
[3]
  IC50: 1 µM
[4]
  IC50: 1 µM

## CCCCCCc1cc2ccccc2n1C(=O)C[C@@H](C)CC(=O)O [Compound 3, 5-(2-Hexyl-indol-1-yl)-3(R)-methyl-5-oxo-pentanoic acid]
[4]
  IC50: 0.8 µM

## CCCCCCc1c(C(=O)CCCC(=O)O)c2ccccc2n1C [Compound 5, 5-(2-Hexyl-1-methyl-1H-indol-3-yl)-5-oxo-pentanoic acid]
[1]
  IC50: 2.5 µM
[5]
  IC50: 3.7 µM

## CCCCCCc1c(C(=O)CC(C)CC(=O)O)c2ccccc2n1C (stereo not drawn) [Compound 6, 5-(2-Hexyl-1-methyl-1H-indol-3-yl)-3-methyl-5-oxo-pentanoic acid]
[1]
  IC50: 0.34 µM

## CCCCCCc1cn(C(=O)CCCC(=O)O)c2ccccc12 [Compound 7, 5-(3-Hexyl-indol-1-yl)-5-oxo-pentanoic acid]
[2]
  IC50: > 30 µM

## CCCCCCn1cc(C(=O)CCCC(=O)O)c2ccccc21 [Compound 8, 5-(1-Hexyl-1H-indol-3-yl)-5-oxo-pentanoic acid]
[5]
  IC50: > 30 µM

## CCCCCCc1[nH]c2ccccc2c1C(=O)CCCC(=O)O [Compound 10, 5-(2-Hexyl-1H-indol-3-yl)-5-oxo-pentanoic acid]
[5]
  IC50: 11 µM

## CCCCCCc1c(C(=O)CCCC(=O)O)n(C)c2ccccc12 [Compound 11, 5-(3-Hexyl-1-methyl-1H-indol-2-yl)-5-oxo-pentanoic acid]
[5]
  IC50: > 30 µM

## CCCC/C=C/c1cc2ccccc2n1C(=O)CCCC(=O)O [Compound 12, 5-(2-Hex-1-enyl-indol-1-yl)-5-oxo-pentanoic acid]
[3]
  IC50: 3.3 µM

## CCCCCCc1cc2ccccc2n1C(=O)CCC(=O)O [Compound 14, 4-(2-Hexyl-indol-1-yl)-4-oxo-butyric acid]
[4]
  IC50: > 10 µM

## CCCCCCc1cc2ccccc2n1CCCC(=O)O [Compound 16, 4-(2-Hexyl-indol-1-yl)-butyric acid]
[4]
  IC50: 4.5 µM

## CCCC/C=C/c1ccc2c(ccn2C(=O)CC(C)CC(=O)O)c1 (stereo not drawn) [Compound 17, 5-(5-Hex-1-enyl-indol-1-yl)-3-methyl-5-oxo-pentanoic acid]
[6]
  IC50: 10 µM

## CCCCCc1cc2ccccc2n1C(=O)CCCC(=O)O [Compound 18, 5-Oxo-5-(2-pentyl-indol-1-yl)-pentanoic acid]
[3]
  IC50: 1.1 µM

## CCCCCc1cc2ccccc2n1C(=O)CC(C)CC(=O)O (stereo not drawn) [Compound 19, 3-Methyl-5-oxo-5-(2-pentyl-indol-1-yl)-pentanoic acid]
[6]
  IC50: 0.1 µM

## CCCCCCCCC/C=C\c1cc2ccccc2n1C(=O)CCCC(=O)O [Compound 20, 5-Oxo-5-(2-undec-1-enyl-indol-1-yl)-pentanoic acid]
[3]
  IC50: 20 µM

## CCCCCCc1cc2ccccc2n1C(=O)CC(C)(C)CC(=O)O [Compound 21, 5-(2-Hexyl-indol-1-yl)-3,3-dimethyl-5-oxo-pentanoic acid]
[4]
  IC50: 13 µM

## CCCCCCCCCCCc1cc2ccccc2n1C(=O)CCCC(=O)O [Compound 23, 5-Oxo-5-(2-undecyl-indol-1-yl)-pentanoic acid]
[3]
  IC50: 25 µM

## CCCCCCCCc1cc2ccccc2n1C(=O)CCCC(=O)O [Compound 25, 5-(2-Octyl-indol-1-yl)-5-oxo-pentanoic acid]
[3]
  IC50: 2.7 µM

## CCCCc1cc2ccccc2n1C(=O)CCCC(=O)O [Compound 26, 5-(2-Butyl-indol-1-yl)-5-oxo-pentanoic acid]
[3]
  IC50: > 30 µM

## CCCCCCc1cccc2ccn(C(=O)CCCC(=O)O)c12 [Compound 27, 5-(7-Hexyl-indol-1-yl)-5-oxo-pentanoic acid]
[2]
  IC50: > 30 µM

## CCCC/C=C/c1ccc2c(ccn2C(=O)CCCC(=O)O)c1 [Compound 28, 5-(5-hex-1-enyl-indol-1-yl)-5-oxo-pentanoic acid]
[2]
  IC50: 6.5 µM

## CCCCCCc1cc2cc(Cl)ccc2n1C(=O)CCCC(=O)O [Compound 29, 5-(5-Chloro-2-hexyl-indol-1-yl)-5-oxo-pentanoic acid]
[3]
  IC50: 1.4 µM

## CCCCCCc1ccc2c(ccn2C(=O)CCCC(=O)O)c1 [Compound 30, 5-(5-Hexyl-indol-1-yl)-5-oxo-pentanoic acid]
[2]
  IC50: > 30 µM

## CCCCCCc1ccc2ccn(C(=O)CCCC(=O)O)c2c1 [Compound 31, 5-(6-Hexyl-indol-1-yl)-5-oxo-pentanoic acid]
[2]
  IC50: > 10 µM

## CCCC/C=C/c1cccc2ccn(C(=O)CCCC(=O)O)c12 [Compound 32, 5-(7-Hex-1-enyl-indol-1-yl)-5-oxo-pentanoic acid]
[2]
  IC50: > 10 µM

## CCCCCCCc1cc2ccccc2n1C(=O)CCCC(=O)O [Compound 33, 5-(2-Heptyl-indol-1-yl)-5-oxo-pentanoic acid]
[3]
  IC50: 1.5 µM

## CCCCCCCc1cc2ccccc2n1C(=O)CC(C)CC(=O)O (stereo not drawn) [Compound 34, 5-(2-Heptyl-indol-1-yl)-3-methyl-5-oxo-pentanoic acid]
[6]
  IC50: 0.12 µM

## CCCCCCc1c(C(=O)C[C@@H](C)CC(=O)O)c2cc(Cl)ccc2n1C [Compound 100, 5-(5-chloro-2-hexyl-1-methyl-1H-indol-3-yl)-3-(R)-methyl-5-oxopentanoic acid]
[1]
  IC50: 0.125 µM

## CCCCCCc1c(C(=O)CC(C)CC(=O)O)c2cc(Cl)ccc2n1CC (stereo not drawn) [Compound 101, 5-(5-Chloro-1-ethyl-2-hexyl-1H-indol-3-yl)-3-methyl-5-oxo-pentanoic acid]
[1]
  IC50: 0.35 µM

## CCCCCCc1c(C(=O)CC(C)CC(=O)O)c2ccccc2n1CC (stereo not drawn) [Compound 102, 5-(1-Ethyl-2-hexyl-1H-indol-3-yl)-3-methyl-5-oxo-pentanoic acid]
[1]
  IC50: 1.6 µM

## CCCCCCc1c(C(=O)CC(C)CC(=O)O)c2ccc(Cl)cc2n1C (stereo not drawn) [Compound 104, 5-(6-Chloro-2-hexyl-1-methyl-1H-indol-3-yl)-3-methyl-5-oxo-pentanoic acid]
[1]
  IC50: 0.119 µM

## CCCCCCc1c(C(=O)CC(C)CC(=O)NC(C)c2ccccc2)c2cc(Cl)ccc2n1C (stereo not drawn) [Compound 105, 5-(5-chloro-2-hexyl-1-methyl-1H-indol-3-yl)-3-methyl-5-oxo-N-(1-phenylethyl)pentanamide]
[1]
  IC50: > 10 µM

## CCCCCCc1c(C(=O)C[C@@H](C)CC(=O)NC(C)c2ccccc2)c2cc(Cl)ccc2n1C (stereo partly drawn) [Compound 106, 5-(5-Chloro-2-hexyl-1-methyl-1H-indol-3-yl)-3-(R)-methyl-5-oxo-pentanoic acid (1-phenyl-ethyl)-amide]
[1]
  IC50: > 10 µM

## CCCCCCc1c(C(=O)c2cccc(C(=O)O)c2)c2cc(Cl)ccc2n1C [Compound 108, 3-(5-Chloro-2-hexyl-1-methyl-1H-indole-3-carbonyl)benzoic acid]
  IC50: 0.065 µM

## CC(C)CCCCc1cc2ccc(Cl)cc2n1C(=O)CC(C)CC(=O)O (stereo not drawn) [Compound 110, 5-[6-Chloro-2-(5-methyl-hexyl)-indol-1-yl]-3-methyl-5-oxo-pentanoic acid]
[1]
  IC50: 1.03 µM

## CC(C)CCCCc1c(C(=O)CC(C)CC(=O)O)c2cc(Cl)ccc2n1C (stereo not drawn) [Compound 114, 5-[5-Chloro-1-methyl-2-(5-methyl-hexyl)-1H-indol-3-yl]-3-methyl-5-oxo-pentanoic acid]
[1]
  IC50: 0.011 µM

## CCCCCCc1cc2ccc(Cl)cc2n1C(=O)CCC(C)(C)C(=O)O [Compound 116, 5-(6-Chloro-2-hexyl-indol-1-yl)-2,2-dimethyl-5-oxo-pentanoic acid]
[1]
  IC50: > 10 µM

Reference: US9464048B2, “5-oxo-ETE receptor antagonist compounds” (THE ROYAL INSTITUTION FOR THE ADVANCEMENT OF …, priority 2009, dated 2016)
